A short description of data set [1]: Stability in fresh mouse plasma at room temperature. Type of data set: in vitro ADME. The procedure: (§1) Two metabolite peaks could be seen at 5 minutes, but were undetectable by 30 minutes.
The nature of data set [2]: Plasma levels in mice after i.v. administration. Type of data set: in vivo, mouse. Set-up: dose or concentration left out as unconfirmed. The conditions noted are these: after PX-916 i.v. to mice. The procedure: as §1
Data set [3] deals with MCF-7 human breast cancer cells. As to the kind of experiment: MCF-7 breast cancer cell growth inhibition. The data set is classed as cell-based.
Description: MCF-7 human breast cancer cells were grown in medium containing 1 μM selenium (Se) for 7 days which increased cellular thioredoxin reductase activity by about 5 fold as previously reported.
Data set [4] concerns the target T1, human thioredoxin reductase (Homo sapiens, UniProt Q16881).
T1 construct: (placenta); from tissue; host or cells: human placenta
T1 sequence (Q16881 151-649 limits assumed): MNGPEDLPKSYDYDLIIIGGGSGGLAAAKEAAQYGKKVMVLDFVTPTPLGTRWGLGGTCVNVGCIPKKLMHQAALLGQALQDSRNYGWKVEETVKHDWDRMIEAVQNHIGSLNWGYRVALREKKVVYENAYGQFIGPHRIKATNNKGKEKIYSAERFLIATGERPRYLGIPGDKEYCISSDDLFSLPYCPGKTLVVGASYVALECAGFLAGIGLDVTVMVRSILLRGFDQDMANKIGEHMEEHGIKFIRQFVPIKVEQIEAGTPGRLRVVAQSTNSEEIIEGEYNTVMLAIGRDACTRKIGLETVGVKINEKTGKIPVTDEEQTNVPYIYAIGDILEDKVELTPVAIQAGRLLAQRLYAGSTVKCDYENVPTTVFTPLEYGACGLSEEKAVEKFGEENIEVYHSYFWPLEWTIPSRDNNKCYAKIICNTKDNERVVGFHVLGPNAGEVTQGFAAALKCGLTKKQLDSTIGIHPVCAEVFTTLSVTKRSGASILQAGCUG
Description: Inhibition of purified human thioredoxin reductase (TrxR/TR). The data set is classed as biochemical.

A further data set is described as follows: Aqueous solubility. Type of data set: physicochemical.
Data set [5] can be described thus: pH dependent stability in water / 0.1M sodium phosphate buffer. Type of data set: physicochemical. The conditions noted are these: for half-life at 100 g/ml / T1/2: 100 g/ml in 0.1M sodium phosphate buffer. The procedure:
PX-916 was stable as a stock solution in ethanol at room temperature with a half life of >5 days. […] Therefore, for in vitro studies PX-916 was used as a stock solution in ethanol, and for in vivo studies made fresh in pH 4.0 buffer vehicle.
Further palmarumycin analogs were synthesized and tested. The following analogs were synthesized: eee269-II, eee86-III, eee263-II and eee273-II. The stability of the analogs was measured in various solutions.

Data set [6] in a line: Stability of prodrugs in human plasma (formation of parent compound). Type of data set: in vitro ADME. The conditions noted are these: first 20 min of incubation at 1 mg/ml and 33° C. The procedure: (§2) The stability of the analogs and formation of the parent compound in plasma was measured and is presented in FIG. 7, FIG. 8 and Table 6 (measured by the formation of parent compound over the first 20 min of incubation at 1 mg/ml and at 33° C.), below.

The nature of data set [7]: Stability of prodrugs in ES1e mouse plasma (formation of parent compound). The data set is classed as in vitro ADME. The conditions noted are these: first 20 min of incubation at 1 mg/ml and 33° C. The procedure:
as §2

A short description of data set [8]: Stability of prodrugs in mouse plasma (formation of parent compound). Type of data set: in vitro ADME. To be noted: first 20 min of incubation at 1 mg/ml and 33° C. The procedure: as §2
The mark [9] stands for this setting: Homo sapiens, MCF7, Table 1, read-out: MCF-7 growth inhibition IC50.
Where [10] appears, read: Table 1, read-out: TrxR inhibitory activity IC50.
Where [11] appears, read: Table 2, read-out: Inhibition of human thioredoxin reductase IC50.

Read-outs that look alike come from different tables or passages of the source. Where only a bound is given, the exact number is not on record here.

A word on the half-life: it is the time needed for the level to fall by half in the phase considered. Broadly, the solubility is the concentration that dissolves in the medium under given conditions.

As for `O=C1C=CC2(Oc3cccc4c(O)ccc(c34)O2)c2cccc(O)c21` (stereo not shown) [PX-960], in [1], the “half life in mouse plasma” value is “about 31 minutes”. This molecule registered a half-life in data set [1] of about 0.517 h. Moreover, the figures for the “detection of PX-960 in plasma” value in data set [2] (at 5 minutes) and in [2] (at 30 minutes) were “only a very small peak” and “No PX-960 was detected”, respectively. Also, the IC50 in data set [3] (Homo sapiens, MCF7, read-out: Inhibition of MCF-7 breast cancer cell growth IC50) was 4100 nM; in data set [3] (setting [9]), 2600 nM; in data set [4] (setting [10]) it was 200 nM; in [4] (setting [11]), 270 nM. In addition, the solubility in “Aqueous solubility” (water, read-out: water solubility) was under 100 µg/mL.
For `NC(Cc1ccccc1)C(=O)Oc1ccc2c3c(cccc13)OC1(C=CC(=O)c3c(O)cccc31)O2` (stereo not shown) [eee273-II], the half-life at 100 g/ml in data set [5] (pH 4.0) and in data set [5] (pH 7.0) was over 100 h in each case. Besides, the “solubility at 1 mg/ml” value in “Aqueous solubility” (1 mg/ml, plasma stability study) was “very insoluble”.
With `CC(C)C(N)C(=O)Oc1ccc2c3c(cccc13)OC1(C=CC(=O)c3ccccc31)O2` (stereo not shown) [Compound 11], the IC50 in data set [3] (setting [9]) turned out to be 2200 nM; in [4] (setting [10]) it was 620 nM.
As to `CC(C)(NNC1CC(=O)c2c(O)cccc2C12Oc1cccc3c(O)ccc(c13)O2)C(N)=O` (stereo not shown) [eee269-II], the half-life at 100 g/ml in data set [5] (pH 4.0) is over 100 h; in data set [5] (pH 7.0) it was 0.2 h. Further, the “stability in aqueous solutions” value in [5] (in words) is “unstable in aqueous solutions”.
Take `O=C1C=CC2(Oc3cccc4c(OCCN5CCOCC5)ccc(c34)O2)c2ccccc21` (stereo not shown) [Compound 13]: the IC50 in data set [3] (setting [9]) was found to be 1200 nM; in data set [4] (setting [10]), 1600 nM.
Consider `COc1ccc2c3c(cccc13)OC1(C=CC(=O)c3ccccc31)O2` (stereo not shown) [PX-911], for which the IC50 was 9200 nM in data set [3] (Homo sapiens, MCF7, Table 2, read-out: Inhibition of MCF-7 breast cancer cell growth IC50) and 3200 nM in [4] (setting [11]).
For the molecule `CC(C)(N)C(=O)Oc1ccc2c3c(cccc13)OC1(C=CC(=O)c3c(O)cccc31)O2` (stereo not shown) [eee263-II], the T1/2 in data set [5] (pH 4.0) and in [5] (pH 7.0) was over 100 h throughout. The “formation of parent compound, Human plasma” value in data set [6] was determined as 81 area/20 min. Moreover, in data set [7], the “formation of parent compound, ES1e mouse plasma” value is 82 area/20 min. In addition, in data set [8], the “formation of parent compound, Mouse Plasma” value is on record as 42 area/20 min.
In the case of `O=C1C=CC2(Oc3cccc4c(OCCN5CCOCC5)ccc(c34)O2)c2cccc(O)c21` (stereo not shown) [Compound 14], the IC50 in data set [3] (setting [9]) was determined as 2600 nM; in data set [4] (setting [10]), 4200 nM.
As for `O=C1C=CC2(Oc3cccc4c(OC5OC(CO)C(O)C(O)C5O)ccc(c34)O2)c2cccc(O)c21` (stereo not shown) [eee86-III], the half-life at 100 g/ml in data set [5] (pH 4.0) and in [5] (pH 7.0) was over 100 h in each case.
Take `O=C1C=CC2(Oc3cccc4cccc(c34)O2)c2cccc(O)c21` [palmarumycin C1, palmarumycin CP1, reference compound]: the IC50 in data set [3] (Table 2, read-out: Inhibition of MCF-7 breast cancer cell growth IC50) is 1000 nM; in data set [3] (text b151, summary of Table 2, read-out: concentration of cell growth inhibition of MCF-7 cells), 1000 to 3000 nM; in data set [4] (setting [11]), 350 nM. In the data set “Aqueous solubility” (in words), the “solubility in aqueous media” value was “almost insoluble in aqueous media”.

These data come from patent US20120226031A1, “PALMARUMYCIN BASED INHIBITORS OF THIOREDOXIN AND METHODS OF USING SAME” (ARIZONA BOARD OF REGENTS, ACTING ON BEHALF OF THE …, priority 2005, published 2012).
